Measured values taken from the supplement of paper PMC10307832.

Assays:
Assay in all cases: relative viability (nuclei count vs DMSO), 5 days (fraction); higher = more cells survive
[1] = compound: CC1=CC(=CC=C1)NC2=NC(=CS2)C3=CC=NC=C3 + NC(=O)Nc1cc(-c2cccc(F)c2)sc1C(=O)N[C@H]1CCCNC1 [AZD7762] (partner 0.2 µM)
Summary of the method: (§1)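 Each reported value is a median over duplicate plates. It expresses relative viability: treated-well nuclei count divided by vehicle-well nuclei count. Lung cancer cell lines in 1536-well plates were dosed by pin tool a day after seeding, alone with one drug or with a fixed anchor-drug dose plus five library-drug doses (not always all listed) in √10 steps, and nuclei were counted after 5 days.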

[2] = compound: CC1=CC(=CC=C1)NC2=NC(=CS2)C3=CC=NC=C3 + O=C(c1cc(Cc2n[nH]c(=O)c3ccccc23)ccc1F)N1CCN(C(=O)C2CC2)CC1 [Olaparib] (partner 8 µM)
Summary of the method: as §1

[3] = compound: Cc1ccc(NC(=O)c2ccc(CN3CCN(C)CC3)cc2)cc1Nc1nc(-c2cccnc2)cs1 [Masitinib] + COc1cc2c(Oc3ccc(NC(=O)C4(C(=O)Nc5ccc(F)cc5)CC4)cc3F)ccnc2cc1OCCCN1CCOCC1 [Foretinib] (partner 0.25 µM)
Summary of the method: as §1

[4] = compound: Cc1ccc(NC(=O)c2ccc(CN3CCN(C)CC3)cc2)cc1Nc1nc(-c2cccnc2)cs1 [Masitinib] + C[C@@H](Oc1cc(-c2cnn(C3CCNCC3)c2)cnc1N)c1c(Cl)ccc(F)c1Cl [Crizotinib] (partner 1 µM)
Summary of the method: as §1

Cell Line	relative viability ([1]; first compound 0.08 µM)	relative viability ([1]; first compound 0.253 µM)	relative viability ([1]; first compound 0.8 µM)	relative viability ([1]; first compound 2.53 µM)	relative viability ([1]; first compound 8 µM)	relative viability ([2]; first compound 0.08 µM)	relative viability ([2]; first compound 0.253 µM)	relative viability ([2]; first compound 0.8 µM)	relative viability ([2]; first compound 2.53 µM)	relative viability ([2]; first compound 8 µM)	relative viability ([3]; first compound 0.01 µM)	relative viability ([3]; first compound 0.03162 µM)	relative viability ([3]; first compound 0.1 µM)	relative viability ([3]; first compound 0.3162 µM)	relative viability ([3]; first compound 1 µM)	relative viability ([4]; first compound 0.01 µM)	relative viability ([4]; first compound 0.03162 µM)	relative viability ([4]; first compound 0.1 µM)	relative viability ([4]; first compound 0.3162 µM)	relative viability ([4]; first compound 1 µM)
HCC-78	0.674	0.409	0.613	0.449	0.658	0.713	0.791	0.842	0.685	0.674	0.554	0.551	0.548	0.521	0.451	0.356	0.445	0.334	0.288	0.293
HCC-366	0.32	0.322	0.266	0.24	0.128	0.352	0.331	0.261	0.286	0.21	–	0.933	–	0.961	0.998	0.467	0.517	0.721	0.334	0.444
HCC-827	0.352	0.418	0.53	0.216	0.28	0.639	0.635	0.661	0.717	0.654	1.03	1.05	1.06	1	1.06	0.725	0.961	0.95	0.893	0.895
IA-LM	–	–	–	–	–	0.8	0.779	0.605	0.475	0.714	1.24	1.09	1.13	1.12	1.36	–	–	0.871	0.618	0.84
NCI-H520	–	–	–	–	–	0.384	0.325	0.391	0.314	0.288	0.899	0.937	0.987	0.695	0.762	0.766	–	0.921	0.908	0.577
NCI-H522	0.681	0.822	0.803	0.848	0.852	0.708	0.579	0.746	0.544	0.704	–	–	–	–	–	–	–	–	–	–
NCI-H661	–	–	–	–	–	0.736	0.803	0.769	0.75	0.642	0.945	1.05	1.04	0.95	0.965	0.737	1.2	0.964	0.93	0.844
NCI-H1299	–	–	–	–	–	1.01	1	0.889	0.904	0.854	1.04	1.06	1.09	1.09	1.07	0.947	0.989	1.02	1.01	0.96
NCI-H1395	0.401	–	0.393	0.352	0.336	0.439	–	0.478	0.46	0.43	0.969	1	1.06	0.754	0.915	–	–	–	–	–
NCI-H1563	–	–	–	–	–	–	–	–	–	–	0.989	0.932	0.87	0.877	0.895	0.833	0.865	0.907	0.814	0.868
NCI-H1623	–	–	–	–	–	–	–	–	–	–	0.771	0.739	0.771	0.707	0.735	–	–	–	–	–
NCI-H1648	0.662	0.568	0.676	0.469	0.469	0.545	0.412	0.656	0.477	0.392	–	–	–	–	–	–	–	–	–	–
NCI-H1650	–	–	–	–	–	0.539	0.901	0.525	0.488	0.432	0.984	0.914	1.09	0.902	1.17	0.958	1.09	0.876	0.862	1.02
NCI-H1792	0.459	0.529	0.628	0.755	0.524	0.312	0.307	0.248	0.255	0.32	–	–	–	–	–	0.866	0.449	0.993	0.829	1.05
NCI-H1793	0.366	0.487	0.522	0.789	0.407	0.889	0.647	0.799	0.68	0.81	0.63	0.684	0.973	0.519	0.61	–	–	–	–	–
NCI-H2009	–	–	–	–	–	0.629	0.644	0.717	0.677	0.63	1.18	1.17	1.18	1.18	1.19	1.03	1.09	1	1.02	0.99
NCI-H2023	–	–	–	–	–	0.42	0.543	0.38	0.388	0.286	0.786	0.721	0.745	0.836	0.73	0.638	0.737	0.645	0.493	0.589
NCI-H2228	–	–	–	–	–	0.396	0.324	0.525	0.559	0.415	0.672	0.763	0.838	0.861	0.777	0.417	0.481	0.717	0.415	0.669
NCI-H2342	0.44	0.403	0.505	0.377	0.523	0.438	0.468	0.398	0.476	0.395	1.09	0.875	1.08	1.13	1.01	–	–	–	–	–
SK-LU-1	–	–	–	–	–	0.49	0.435	–	0.459	0.433	0.803	0.815	0.95	0.945	0.931	0.832	0.884	0.983	1.01	0.756
SK-MES-1	–	–	–	–	–	0.423	0.437	0.466	0.457	0.401	1	0.861	1.1	0.572	0.841	0.912	1.01	1.02	1.02	0.983
SW 900	0.65	0.576	0.745	0.508	0.26	0.751	0.667	0.693	0.433	0.543	0.757	0.846	1.04	0.798	1.03	–	–	–	–	–
SW 1573	–	–	–	–	–	0.486	0.544	0.526	0.465	0.441	0.765	0.974	0.97	0.784	0.865	0.761	0.786	0.754	0.718	0.778
